Converted amounts (≈) assume the structure as drawn. A value given as a limit tells only on which side of the number the result lay.

The text below walks through data of ChEMBL document CHEMBL1150336, “Synthesis and antibacterial activity of novel pyrido[1,2,3-de][1,4]benzoxazine-6-carboxylic acid derivatives carrying the 3-cyclopropylaminomethyl-4-substituted-1-pyrrolidinyl group as a C-10 substituent” (J Med Chem, 2008).

Data set [1] concerns Klebsiella pneumoniae. In words: Antibacterial activity against Klebsiella pneumoniae IID5209 after 18 hrs by agar dilution method. The data set is classed as functional.
Data set [2] has as its system Escherichia coli. The experiment in a line: Antibacterial activity against Escherichia coli NIHJ JC2 after 18 hrs by agar dilution method. The data set is classed as functional. As to conditions: NIHJ JC2, 18 h.
Data set [3] concerns Enterococcus faecalis. The experiment in a line: Antibacterial activity against Enterococcus faecalis IID682 after 18 hrs by agar dilution method. The data set is classed as functional. On the technique in general: Agar dilution tests growth on a series of plates holding different concentrations.
The test system of data set [4] is Streptococcus pyogenes. The experiment in a line: Antibacterial activity against Streptococcus pyogenes IID692 after 18 hrs by agar dilution method. The data set is classed as functional.
For data set [5], the system named is Staphylococcus aureus. The experiment in a line: Antibacterial activity against Staphylococcus aureus Smith after 18 hrs by agar dilution method. The data set is classed as functional.
For data set [6], the system named is Haemophilus influenzae. The experiment in a line: Antibacterial activity against Haemophilus influenzae IID983 after 18 hrs by agar dilution method. The data set is classed as functional.
Data set [7] deals with Streptococcus pneumoniae. In words: Antibacterial activity against Streptococcus pneumoniae type 3 after 18 hrs by agar dilution method. The data set is classed as functional.
For data set [8], the system named is Pseudomonas aeruginosa. The experiment in a line: Antibacterial activity against Pseudomonas aeruginosa IID1210 after 18 hrs by agar dilution method. The data set is classed as functional.
Data set [9] relates to Staphylococcus aureus. The experiment in a line: Antibacterial activity against quinoline-resistant Staphylococcus aureus OITI MR1-1002 isolate after 18 hrs by agar dilution method. The data set is classed as functional.
The subject of data set [10] is Streptococcus pneumoniae. In words: Antibacterial activity against quinoline-resistant Streptococcus pneumoniae no.55 isolate after 18 hrs by agar dilution method. The data set is classed as functional.
Data set [11] concerns Enterococcus faecalis. In words: Antibacterial activity against quinoline-resistant Enterococcus faecalis No.15 isolate after 18 hrs by agar dilution method. The data set is classed as functional.
Data set [12] concerns Enterococcus faecalis. In words: Antibacterial activity against vancomycin-resistant Enterococcus faecalis KU1856 after 18 hrs by agar dilution method. The data set is classed as functional.
Data set [13] concerns Enterococcus faecalis. The experiment in a line: Antibacterial activity against vancomycin-resistant Enterococcus faecalis KU1866 after 18 hrs by agar dilution method. The data set is classed as functional.
Data set [14] concerns Mus musculus. The experiment in a line: Toxicity in ICR mouse assessed as mortality administered as single dose at 100 mg/kg, iv after 7 days. The data set is classed as organism-based. The arrangement: dose 100 mg/kg, route intravenous. Conditions: in vivo, 168 h.
Data set [15] has as its system Mus musculus. In words: Toxicity in intracerebroventricularly dosed ICR mouse assessed as induction of convulsion after 2 hrs in absence of fenbufen. The data set is classed as organism-based. Conditions: in vivo, icv_or_intrathecal.
The test system of data set [16] is Mus musculus. In words: Toxicity in intracerebroventricularly dosed ICR mouse assessed as induction of convulsion after 2 hrs in presence of fenbufen. The data set is classed as organism-based. As to conditions: in vivo, icv_or_intrathecal.
The subject of data set [17] is Mus musculus. The experiment in a line: Toxicity in ICR mouse assessed as mortality administered as single dose at 200 mg/kg, iv after 7 days. The data set is classed as organism-based. The arrangement: dose 200 mg/kg, route intravenous. As to conditions: in vivo, 168 h.
The test system of data set [18] is Mus musculus. In words: Phototoxicity in orally dosed ICR mouse assessed as skin erythema after 72 hrs. The data set is classed as organism-based. Conditions: in vivo, po.
Data set [19] can be described thus: Inhibition of Staphylococcus aureus MS5935 wild type topoisomerase 4-mediated decatenation activity.
A short description of data set [20]: Inhibition of quinoline-resistant Staphylococcus aureus MS5935 topoisomerase 4-mediated decatenation activity.
The test system of data set [21] is Staphylococcus aureus. The experiment in a line: Antibacterial activity against quinoline-resistant wild type Staphylococcus aureus MS5935 after 18 hrs by agar dilution method. The data set is classed as functional.
Data set [22] relates to Staphylococcus aureus. The experiment in a line: Antibacterial activity against quinoline-resistant Staphylococcus aureus MS5935 containing single grlA mutation after 18 hrs by agar dilution method. The data set is classed as functional.
The test system of data set [23] is Staphylococcus aureus. In words: Antibacterial activity against quinoline-resistant Staphylococcus aureus MS5935 containing single grlA and single gyrA mutation after 18 hrs by agar dilution method. The data set is classed as functional.
Data set [24] deals with Staphylococcus aureus. In words: Antibacterial activity against quinoline-resistant Staphylococcus aureus MS5935 containing double grlA and single gyrA mutation after 18 hrs by agar dilution method. The data set is classed as functional.
The test system of data set [25] is Staphylococcus aureus. The experiment in a line: Antibacterial activity against quinoline-resistant Staphylococcus aureus MS5935 containing double grlA and double gyrA mutation after 18 hrs by agar dilution method. The data set is classed as functional.

In the case of `C[C@@H]1CN(c2c(F)cc3c(=O)c(C(=O)O)cn4c3c2OC[C@@H]4C)C[C@@H]1CNC1CC1`, the MIC in data set [1] came to 0.063 µg/mL (≈ 0.152 µM); in data set [2], 0.016 µg/mL (≈ 0.0385 µM); in data set [3] it was 0.063 µg/mL (≈ 0.152 µM); in data set [4] it was 0.016 µg/mL (≈ 0.0385 µM); in [5], 0.008 µg/mL (≈ 0.0193 µM); in [6] it was 0.004 µg/mL (≈ 0.00963 µM). In addition, the MIC is 0.016 µg/mL (≈ 0.0385 µM) in [7]; 2 µg/mL (≈ 4.81 µM) in data set [8]; 0.5 µg/mL (≈ 1.2 µM) in [9]; 0.125 µg/mL (≈ 0.301 µM) in [10]; 1 µg/mL (≈ 2.41 µM) in data set [11]; 1 µg/mL (≈ 2.41 µM) in data set [12]. In data set [13], this compound gave an MIC of 1 µg/mL (≈ 2.41 µM). The Activity entry was “Toxic” in data set [14], greater than 40 µg in [15] and greater than 40 µg in data set [16].
As to `C[C@@H]1CN(c2c(F)cc3c(=O)c(C(=O)O)cn4c3c2OC[C@@H]4CF)C[C@@H]1CNC1CC1`, the MIC in data set [1] was found to be 0.063 µg/mL (≈ 0.145 µM); in [2], 0.016 µg/mL (≈ 0.0369 µM); in [3], 0.063 µg/mL (≈ 0.145 µM); in data set [4], 0.031 µg/mL (≈ 0.0715 µM); in data set [5], 0.008 µg/mL (≈ 0.0185 µM); in data set [6], 0.004 µg/mL (≈ 0.00923 µM). The MIC turned out to be 0.016 µg/mL (≈ 0.0369 µM) in [7]; 2 µg/mL (≈ 4.61 µM) in [8]; 0.5 µg/mL (≈ 1.15 µM) in data set [9]; 0.125 µg/mL (≈ 0.288 µM) in data set [10]; 1 µg/mL (≈ 2.31 µM) in data set [11]; 1 µg/mL (≈ 2.31 µM) in data set [12]. In data set [13], this compound came in with an MIC of 1 µg/mL (≈ 2.31 µM). Besides, the Activity result in data set [17] was “Toxic”; in data set [15] it was 20 µg; in data set [16] it was 10 µg; in data set [18], “Non-toxic”.
`C[C@H]1COc2c(N3C[C@H](CNC4CC4)[C@@H](F)C3)c(F)cc3c(=O)c(C(=O)O)cn1c23`: the MIC in [1] was 0.125 µg/mL (≈ 0.298 µM); in data set [2] it was 0.016 µg/mL (≈ 0.0381 µM); in [3], 0.125 µg/mL (≈ 0.298 µM); in [4], 0.125 µg/mL (≈ 0.298 µM); in data set [5], 0.016 µg/mL (≈ 0.0381 µM); in [6] it was 0.008 µg/mL (≈ 0.0191 µM). Also, the MIC came to 0.063 µg/mL (≈ 0.15 µM) in data set [7]; 4 µg/mL (≈ 9.54 µM) in data set [8]; 16 µg/mL (≈ 38.1 µM) in data set [9]; 2 µg/mL (≈ 4.77 µM) in data set [10]; 4 µg/mL (≈ 9.54 µM) in data set [11]; 2 µg/mL (≈ 4.77 µM) in [12]. In data set [13], the MIC was 4 µg/mL (≈ 9.54 µM).
Consider `C[C@H]1COc2c(N3CC[C@@H](CNC4CC4)C3)c(F)cc3c(=O)c(C(=O)O)cn1c23`, for which the MIC in [1] amounted to 0.063 µg/mL (≈ 0.157 µM); in data set [2] it was 0.008 µg/mL (≈ 0.0199 µM); in data set [3], 0.063 µg/mL (≈ 0.157 µM); in [4], 0.016 µg/mL (≈ 0.0399 µM); in [5], 0.008 µg/mL (≈ 0.0199 µM); in data set [6], 0.016 µg/mL (≈ 0.0399 µM). The MIC was 0.016 µg/mL (≈ 0.0399 µM) in [7]; 2 µg/mL (≈ 4.98 µM) in data set [8]; 2 µg/mL (≈ 4.98 µM) in data set [9]; 0.25 µg/mL (≈ 0.623 µM) in data set [10]; 1 µg/mL (≈ 2.49 µM) in [11]; 0.5 µg/mL (≈ 1.25 µM) in [12]. In [13], this compound showed an MIC of 0.5 µg/mL (≈ 1.25 µM). In addition, the Activity result is “Non-toxic” in [14], “Toxic” in data set [17], 20 µg in data set [15] and 20 µg in data set [16].
Usually IC50 stands for the point on the concentration scale where inhibition reaches its midpoint. Higher therefore signals a need for much substance. As to `C[C@H]1COc2c(N3CCN(C)CC3)c(F)cc3c(=O)c(C(=O)O)cn1c23.C[C@H]1COc2c(N3CCN(C)CC3)c(F)cc3c(=O)c(C(=O)O)cn1c23.O` [LEVOFLOXACIN], the MIC was 0.016 µg/mL in [1]; no more than 0.001 µg/mL in data set [2]; 1 µg/mL in data set [3]; 0.5 µg/mL in data set [4]; 0.125 µg/mL in [5]; 0.008 µg/mL in data set [6]. The MIC in data set [8] was 0.5 µg/mL; in [9], greater than 128 µg/mL; in data set [11], 64 µg/mL; in data set [12], 32 µg/mL; in [13] it was 32 µg/mL; in data set [21], 0.125 µg/mL. Also, the MIC in data set [22] was 0.5 µg/mL; in [23] it was 8 µg/mL; in data set [24], 32 µg/mL; in [25], greater than 128 µg/mL. Further, the IC50 was found to be 5.44 µg/mL in [19] and 319 µg/mL in data set [20].
Regarding `O=C(O)c1cn(C2CC2)c2cc(N3CCNCC3)c(F)cc2c1=O` [CIPROFLOXACIN], the MIC was 0.004 µg/mL (≈ 0.0121 µM) in data set [1]; no more than 0.001 µg/mL in data set [2]; 0.5 µg/mL (≈ 1.51 µM) in data set [3]; 0.5 µg/mL (≈ 1.51 µM) in data set [4]; 0.25 µg/mL (≈ 0.754 µM) in data set [5]; 0.008 µg/mL (≈ 0.0241 µM) in [6]. The MIC in [9], in [10], in data set [11], in data set [12] and in [13] was 64 µg/mL (≈ 193 µM) throughout.
